Here are results for two compounds from patent publication US11472816B2, “Mcl-1 inhibitors and methods of use thereof” (AstraZeneca AB, priority 2016, dated 2022).

The test system of experiment [1] is NCI-H929 tumor. The experiment can be described thus: In vivo combination efficacy in NCI-H929 human multiple myeloma subcutaneous tumor model. On the set-up: species or system C.B-17 SCID female mice. Particulars: either agent alone (Example 2 30 mg/kg every other week; bortezomib 1 mg/kg weekly), NCI-H929 tumor bearing mice. As to the method:
(§1) Method: Example 2 was formulated in 30% 2-Hydroxypropyl-beta-cyclodextrin (HPBCD), pH 9 and dosed as intravenously (iv) in a volume of 5 ml/kg. 5×10^6 MOLP-8 tumor cells or 10^7 NCI-H929 tumor cells were injected subcutaneously in the right flank of C.B-17 SCID female mice in a volume of 0.1 mL. Tumor volumes (measured by caliper) were calculated using the formula: length (mm)×width (mm)^2[…]. For efficacy studies, mice were randomized based on tumor volumes and growth inhibition was assessed by comparison of the differences in tumor volume between control and treated groups. Dosing began when mean tumor size reached approximately 160 mm^3 for MOLP-8 and approximately 230 mm^3 for NCI-H929.

Experiment [2] deals with MV-4-11 tumor. As to the kind of experiment: In vivo efficacy in MV-4-11 human acute myeloid leukemia subcutaneous tumor model. Details: species or system C.B-17 SCID female mice. As to the method: as §1, with “a single intravenous” for “intravenously”, “(iv) administration” for “(iv)”, “10^6 MV-4-11” for “5×10^6 MOLP-8 tumor cells or 10^7 NCI-H929”, “mL. Tumor volumes (measured by caliper), animal body weight, and tumor conditions were recorded twice weekly for the duration of the study.” for “mL.”, “approximately” for “approximately 160 mm^3 for MOLP-8 and approximately”, “mm^3.” for “mm^3 for NCI-H929.”

As for `CC(C)C[C@H](NC(=O)[C@H](Cc1ccccc1)NC(=O)c1cnccn1)B(O)O` [bortezomib, reference compound], the “anti-tumor activity, agent alone” value in experiment [1] is recorded as “no significant anti-tumor activity”.
As for `Cc1c2c(nn1C)CSCc1cc(n(C)n1)CSc1cc(c3ccccc3c1)OCCCc1c(C(=O)O)n(C)c3c-2c(Cl)ccc13` (atropisomer, axis not shown; (Ra)) [Example 2, (Ra)-(+)-17-chloro-5,13,14,22-tetramethyl-28-oxa-2,9-dithia-5,6,12,13,22-pentaazaheptacyclo[27.7.1.1^4,7.0^11,15.0^16,21.0^20,24.0^30,35]octatriaconta-1(37),4(38),6,11,14,16,18,20,23,29,31,33,35-tridecaene-23-carboxylic acid], the “mice remaining tumor free” value in experiment [2] (once weekly iv 30 mg/kg, 16 days after initiation of therapy) is 1 of 6; in experiment [2] (single iv dose of 100 mg/kg, 16 days after therapy) it was 4 of the 6. In addition, in experiment [1], the “anti-tumor activity, agent alone” value is listed as “no significant anti-tumor activity”.
